Read-outs that look alike come from different tables or passages of the source.
Key:
[1] = Hydrolysis stability test in homogeneous aqueous solution; type: physicochemical
From the text: Stability Towards Hydrolysis in Homogeneous Aqueous Solution—Hydrolysis Stability Test The chemical stability towards hydrolysis of the phenylamidines described in the prior art is good but an improved stability may be an advantage during the preparation and formulation processes in a large scale. The improved stability towards hydrolysis was proven by a hydrolysis stability test as described below: To produce a suitable preparation of active compound for the hydrolysis stability test, a 1000 ppm stock solution (1 mg/mL) of active compound in acetonitrile is prepared. Three aliquots of 100 μL are pipetted into HPLC vials and diluted with 750 μL acetonitrile. In each vial 850 μL of the appropriate buffer solution (pH4, pH7 and pH9, CertiPUR, Fa. Merck) is added. The buffer containing HPLC vials are incubated in a heated sample tray at 50° C. for 24 hours. The amount A of the active compound is analyzed by HPLC (UV-peak areas at 210 nm) at eight points in time t: 0 min, 140 min, 350 min, 560 min, 770 min, 980 min, 1190 min, 1400 min. The half-life time (T1/2) of each active compound is calculated via linear regression by using the following equations (first order degradation assumed): [formula] [formula] In table III the results of the hydrolysis stability test are shown for the compounds (I-01), (I-02), (I-03) and (I-04) at various pH-values. […] 337 known from WO2008/110278. […] This increased stability will be of advantage during the preparation and formulation processes in a large scale compared to known amidines. The data are to be seen merely by way of example and are not limiting for the purposes of the invention.

[2] = Log P by HPLC on reversed phase columns (EEC directive 79/831 Annex V.A8); type: physicochemical; settings: LC-UV
Procedure: Measurement of Log P values was performed according to EEC directive 79/831 Annex V.A8 by HPLC (High Performance Liquid Chromatography) on reversed phase columns with the following methods: • ^[a] Log P value is determined by measurement of LC-UV, in an acidic range, with 0.1% formic acid in water and acetonitrile as eluent (linear gradient from 10% acetonitrile to 95% acetonitrile). • ^[b] Log P value is determined by measurement of LC-UV, in a neutral range, with 0.001 molar ammonium acetate solution in water and acetonitrile as eluent (linear gradient from 10% acetonitrile to 95% acetonitrile). […] Lambda-max-values were determined using UV-spectra from 200 nm to 400 nm and the peak values of the chromatographic signals.

[3] = Photolysis stability test; type: physicochemical
From the text: Stability Towards Photolysis—Photolysis Stability Test
The stability towards photolysis of the phenylamidines described in the prior art is good but an improved stability towards photolysis may be an advantage as it could offer a longer lasting efficacy when applied to plants by foliar application. The improved stability towards photolysis was proven by a […] as described below: To produce a suitable preparation of active compound for the photolysis stability test, a 1000 ppm stock solution (1 mg/mL) of active compound in acetonitrile is prepared. Aliquots of 25 μL of this stock solution are pipetted in three wells of a Bio-one microtiter plate (MTP) UVStar 96 (Fa. Greiner, Art. No. 655801). The MTP is dried overnight in the dark and then irradiated at 30° C. and 480 W/m^2 with a UV irradiation device SUNTEST XLS+ or SUNTEST CPS (Fa. Atlas). The amount A of the active compound is analyzed by HPLC (UV-peak areas at 210 nm) at five points in time t: 0 h, 2 h, 4 h, 6 h, 24 h by using the following method: 200 μL acetonitrile is added in the respective well of the MTP and the MTP is sealed with a Bio-one sealing foil, viewseal 80/140 mm (Fa. Greiner, Art. No. 676070). The MTPs are sonicated for 3 minutes and analysed by HPLC. The half-life time (T) of each active compound is calculated via linear regression by using the following equations (first order degradation assumed): […]
In table IV the results of the photolysis stability test are shown for the compounds (I-01), (I-02), (I-03) and (I-04). […] This increased chemical stability towards photolysis will be of advantage as it will offer a longer lasting efficacy when applied to plants by foliar application compared to known amidines. The data are to be seen merely by way of example and are not limiting for the purposes of the invention.

[4] = test system: soy bean plants; test: Plant compatibility test using soy bean plants; type: in vivo; settings: soy bean plants sprayed, 1000 ppm active compound, evaluated 6 days after application; 0% no damages, 100% totally damaged
Procedure: Plant Compatibility Test Using Soy Bean Plants • Solvent: 24.5 parts by weight of acetone • 24.5 parts by weight of dimethylacetamide • Emulsifier: 1 part by weight of alkylaryl polyglycol ether To produce a suitable preparation of active compound, 1 part by weight of active compound is mixed with the stated amounts of solvent and emulsifier, and the concentrate is diluted with water to the desired concentration. Young plants are sprayed with the preparation of active compound at the stated application rate. The plants are then placed in a greenhouse at approximately 21° C. and a relative atmospheric humidity of approximately 80%. The test is evaluated 6 days after application and comprises plant damages like leaf deformation, chlorosis, necrosis, shoot damage or stunting. The results are summarized in table V. 0% means no damages are observed, while 100% means that the plants are totally damaged.

[5] = test system: Phakopsora pachyrhizi; test: In vivo preventive test on Phakopsora (soybeans); settings: 100 ppm of active ingredient, preventive spray on soybeans, evaluated 7 days after inoculation
Procedure: Example: In Vivo Preventive Test on Phakopsora Test (Soybeans)
• Solvent: 24.5 parts by weight of acetone • 24.5 parts by weight of dimethylacetamide • Emulsifier: 1 part by weight of alkylaryl polyglycol ether
To produce a suitable preparation of active compound, 1 part by weight of active compound is mixed with the stated amounts of solvent and emulsifier, and the concentrate is diluted with water to the desired concentration.
To test for preventive activity, young plants are sprayed with the preparation of active compound at the stated rate of application. After the spray coating has dried on, the plants are inoculated with an aqueous spore suspension of the causal agent of soybean rust (Phakopsora pachyrhizi) and stay for 24 h without light in an incubation cabinet at approximately 24° C. and a relative atmospheric humidity of 95%.
The plants remain in the incubation cabinet at approximately 24° C. and a relative atmospheric humidity of approximately 80% and a day/night interval of 12 h.
The test is evaluated 7 days after the inoculation. 0% means an efficacy which corresponds to that of the untreated control, while an efficacy of 100% means that no disease is observed.

[6] = pH 7, read-out: T1/2 (pH 7) (converted)
[7] = pH 9, read-out: T1/2 (pH 9) (converted)
[8] = acidic range, 0.1% formic acid in water and acetonitrile as eluent, read-out: LogP [a]
[9] = neutral range, 0.001 molar ammonium acetate solution in water and acetonitrile as eluent, read-out: LogP [b]

Structure (SMILES)	half-life at 58.8 µg/mL [1, 6]	half-life at 58.8 µg/mL [1, 7]	chromatographic logP [2, 8]	chromatographic logP [2, 9]	half-life at 25 µg/well [3]	Necrosis in % [4]	efficacy [5]
CCN(C)C=Nc1cc(C)c(Oc2ccccc2Br)cc1Br [Example I-07, N′-[2-bromo-4-(2-bromophenoxy)-5-methylphenyl]-N-ethyl-N-methylimidoformamide]	63 h	57 h	1.81	–	–	–	–
Cc1cc(N)c(Br)cc1Oc1ccccc1Cl [VIII-04, 2-Bromo-4-(2-chlorophenoxy)-5-methylaniline]	–	–	–	3.53	–	–	–
CCN(C)C=Nc1cc(C)c(Oc2ccccc2Cl)cc1Br [Example I-04, N′-[2-bromo-4-(2-chlorophenoxy)-5-methylphenyl]-N-ethyl-N-methylimidoformamide]	64 h	58 h	1.84	4.97	> 200 h	–	–
CCN(C)C=Nc1cc(C)c(Oc2ccccc2F)cc1C(F)F [Example I-02, N′-[2-(difluoromethyl)-4-(2-fluorophenoxy)-5-methylphenyl]-N-ethyl-N-methylimidoformamide]	160 h	140 h	1.76	–	185 h	–	–
CCN(C)C=Nc1cc(C)c(Oc2ccccc2Cl)cc1Cl [Example I-05, N′-[2-chloro-4-(2-chlorophenoxy)-5-methylphenyl]-N-ethyl-N-methylimidoformamide]	51 h	47 h	1.58	–	–	–	–
Cc1cc([N+](=O)[O-])c(C(F)F)cc1Oc1ccccc1F [VI-02, 1-(Difluoromethyl)-5-(2-fluorophenoxy)-4-methyl-2-nitrobenzene]	–	–	3.97	–	–	–	–
CCN(C)C=Nc1cc(C)c(Oc2ccccc2I)cc1Cl [Example I-06, N′-[2-chloro-4-(2-iodophenoxy)-5-methylphenyl]-N-ethyl-N-methylimidoformamide]	–	–	1.78	–	–	–	–
CCN(C)/C=N/c1cc(C)c(Oc2ccccc2F)cc1C [Compound no.337]	–	–	–	–	–	90%	–
CCN(C)/C=N/c1cc(C)c(Oc2ccccc2)cc1C [Compound no. 1]	–	–	–	–	–	90%	–
CCN(C)C=Nc1cc(C)c(Oc2ccccc2F)cc1Br [Example I-03, N′-[2-bromo-4-(2-fluorophenoxy)-5-methylphenyl]-N-ethyl-N-methylimidoformamide]	68 h	51 h	1.66	4.53	178 h	–	–
Cc1cc([N+](=O)[O-])c(Br)cc1Oc1ccccc1Cl [VI-04, 4-Bromo-2-(2-chlorophenoxy)-1-methyl-5-nitrobenzene]	–	–	4.68	–	–	–	–
CCN(C)/C=N/c1cc(C)c(Oc2ccccc2F)cc1Cl [Example I-01, N′-[2-chloro-4-(2-fluorophenoxy)-5-methylphenyl]-N-ethyl-N-methylimidoformamide]	52 h	47 h	1.66	–	> 200 h	20%	at least 70%
